Test results: ChEMBL document CHEMBL5252638, “Novel triphenylphosphonium amphiphilic conjugates of glycerolipid type: synthesis, cytotoxic and antibacterial activity, and targeted cancer cell delivery” (RSC Med Chem, 2023)

Assays:
[1] = Selectivity index, ratio of IC50 for human WI-38 cells to IC50 for human A549 cells; format: toxicity; conditions: WI-38 cells and A549 cells, read-out: Ratio IC50
[2] = test system: T98G; test: Cytotoxicity against human T98G cells assessed as number of viable cells measured after 48 hrs by MTT based colorimetric assay; format: functional, cell-based
[3] = test system: MCF7; test: Cytotoxicity against human MCF7 cells assessed as number of viable cells measured after 48 hrs by MTT based colorimetric assay; format: functional, cell-based; conditions: MCF7, 48 h
[4] = species on record: Homo sapiens; test: Selectivity index, ratio of IC50 for human WI-38 cells to IC50 for human HuTu80 cells
[5] = test system: A549; test: Cytotoxicity against human A549 cells assessed as number of viable cells measured after 48 hrs by MTT based colorimetric assay; format: functional, cell-based; conditions: A549, 48 h
[6] = Cytotoxicity against human WI-38 cells assessed as number of viable cells measured after 48 hrs by MTT based colorimetric assay; format: toxicity, cell-based
[7] = Selectivity index, ratio of IC50 for human WI-38 cells to IC50 for human T98G cells; format: toxicity; conditions: WI-38 cells and T98G cells, read-out: Ratio IC50
[8] = test system: M-HeLa; test: Cytotoxicity against human HelaM cells assessed as number of viable cells measured after 48 hrs by MTT based colorimetric assay; format: functional, cell-based
[9] = Selectivity index, ratio of IC50 for human WI-38 cells to IC50 for human MCF7 cells; format: toxicity; conditions: WI-38 cells and MCF7 cells, read-out: Ratio IC50
[10] = test system: HuTu80; test: Cytotoxicity against human HuTu80 cells assessed as number of viable cells measured after 48 hrs by MTT based colorimetric assay; format: functional, cell-based; conditions: HuTu80, 48 h
[11] = test system: PC-3; test: Cytotoxicity against human PC-3 cells assessed as number of viable cells measured after 48 hrs by MTT based colorimetric assay; format: functional, cell-based; conditions: PC-3, 48 h
[12] = species on record: Homo sapiens; test: Selectivity index, ratio of IC50 for human WI-38 cells to IC50 for human DU-145 cells
[13] = test system: SK-OV-3; test: Cytotoxicity against human SK-OV-3 cells assessed as number of viable cells measured after 48 hrs by MTT based colorimetric assay; format: functional, cell-based; conditions: SK-OV-3, 48 h
[14] = test system: Pseudomonas aeruginosa; test: Bactericidal against Pseudomonas aeruginosa ATCC 9027 by serial microdilution method; format: functional
[15] = test system: Escherichia coli; test: Antimicrobial activity against Escherichia coli ATCC 25922 by serial microdilution method; format: functional
[16] = test system: Staphylococcus aureus; test: Bactericidal against Staphylococcus aureus ATCC 6538 P FDA 209P by serial microdilution method; format: functional
[17] = test system: Escherichia coli; test: Bactericidal activity against Escherichia coli ATCC 25922 by serial microdilution method; format: functional
[18] = test system: HepG2; test: Cytotoxicity against human HepG2 cells assessed as number of viable cells measured after 48 hrs by MTT based colorimetric assay; format: functional, cell-based; conditions: HepG2, 48 h
[19] = test system: DU-145; test: Cytotoxicity against human DU-145 cells assessed as number of viable cells measured after 48 hrs by MTT based colorimetric assay; format: functional, cell-based; conditions: DU-145, 48 h
[20] = Cytotoxicity against human Chang liver cells assessed as number of viable cells measured after 48 hrs by MTT based colorimetric assay; format: toxicity, cell-based
[21] = test system: Enterococcus faecalis; test: Antimicrobial activity against Enterococcus faecalis ATCC 29212 by serial microdilution method; format: functional
[22] = Selectivity index, ratio of IC50 for human WI-38 cells to IC50 for human PC-3 cells; format: toxicity; conditions: WI-38 cells and PC-3 cells, read-out: Ratio IC50
[23] = test system: Bacillus cereus; test: Antimicrobial activity against Bacillus cereus ATCC 10702 NCTC 8035 by serial microdilution method; format: functional
[24] = test system: Pseudomonas aeruginosa; test: Antimicrobial activity against Pseudomonas aeruginosa ATCC 9027 by serial microdilution method; format: functional
[25] = test system: Staphylococcus aureus; test: Antimicrobial activity against Staphylococcus aureus ATCC 6538 P FDA 209P by serial microdilution method; format: functional
[26] = species on record: Homo sapiens; test: Selectivity index, ratio of IC50 for human WI-38 cells to IC50 for human PANC-1 cells
[27] = test system: PANC-1; test: Cytotoxicity against human PANC-1 cells assessed as number of viable cells measured after 48 hrs by MTT based colorimetric assay; format: functional, cell-based; conditions: PANC-1, 48 h
[28] = species on record: Homo sapiens; test: Selectivity index, ratio of IC50 for human WI-38 cells to IC50 for human SK-OV-3 cells
[29] = Selectivity index, ratio of IC50 for human WI-38 cells to IC50 for human HepG2 cells; format: toxicity; conditions: WI-38 cells and HepG2 cells, read-out: Ratio IC50
[30] = test system: Enterococcus faecalis; test: Bactericidal activity against Enterococcus faecalis ATCC 29212 by serial microdilution method; format: functional
[31] = test system: HuTu80; test: Induction of mitochondrial membrane potential loss in human HuTu80 cells assessed as J-aggregates red fluorescence intensity at 10 uM incubated for 24 hrs by JC10 staining based flow cytometry method (reference value: 94.4%); format: functional
[32] = test system: Bacillus cereus; test: Bactericidal activity against Bacillus cereus ATCC 10702 NCTC 8035 by serial microdilution method; format: functional
[33] = test system: HuTu80; test: Induction of mitochondrial membrane potential loss in human HuTu80 cells assessed as J-monomer green fluorescence intensity at 10 uM incubated for 24 hrs by JC10 staining based flow cytometry method (reference value: 5.7%); format: functional
[34] = test system: HuTu80; test: Induction of apoptosis in human HuTu80 cells assessed as necrotic cells at 1 uM incubated for 48 hrs by annexin V FITC/propidium iodide staining based flow cytometry analysis (reference value: 4.56%); format: functional
[35] = test system: HuTu80; test: Induction of apoptosis in human HuTu80 cells assessed as late apoptotic cells at 2 uM incubated for 48 hrs by annexin V FITC/propidium iodide staining based flow cytometry analysis (reference value: 0.00%); format: functional
[36] = test system: HuTu80; test: Induction of cell cycle arrest in human HuTu80 cells assessed as accumulation of cell at G1/G0 phase at 2 uM measured after 48 hrs by propidium iodide staining based analysis (reference value: 72%); format: functional
[37] = test system: HuTu80; test: Induction of cell cycle arrest in human HuTu80 cells assessed as accumulation of cell at G1/G0 phase at 1 uM measured after 48 hrs by propidium iodide staining based analysis (reference value: 72%); format: functional
[38] = test system: HuTu80; test: Induction of cell cycle arrest in human HuTu80 cells assessed as accumulation of cell at G2/M phase at 1 uM measured after 48 hrs by propidium iodide staining based analysis (reference value: 18.7%); format: functional
[39] = test system: HuTu80; test: Induction of ROS production in human HuTu80 cells assessed as increase in fluorescence intensity at 10 uM measured after 48 hrs by flow cytometry based analysis (reference value: 380); format: functional
[40] = test system: HuTu80; test: Induction of apoptosis in human HuTu80 cells assessed as viable cells at 2 uM incubated for 48 hrs by annexin V FITC/propidium iodide staining based flow cytometry analysis (reference value: 93.71%); format: functional; conditions: read-out: Activity
[41] = test system: HuTu80; test: Induction of apoptosis in human HuTu80 cells assessed as necrotic cells at 2 uM incubated for 48 hrs by annexin V FITC/propidium iodide staining based flow cytometry analysis (reference value: 4.56%); format: functional
[42] = test system: HuTu80; test: Induction of ROS production in human HuTu80 cells assessed as increase in fluorescence intensity at 5 uM measured after 48 hrs by flow cytometry based analysis (reference value: 380); format: functional
[43] = test system: HuTu80; test: Induction of apoptosis in human HuTu80 cells assessed as early apoptotic cells at 1 uM incubated for 48 hrs by annexin V FITC/propidium iodide staining based flow cytometry analysis (reference value: 1.74%); format: functional
[44] = test system: HuTu80; test: Induction of mitochondrial membrane potential loss in human HuTu80 cells assessed as J-monomer green fluorescence intensity at 5 uM incubated for 24 hrs by JC10 staining based flow cytometry method (reference value: 5.7%); format: functional
[45] = test system: HuTu80; test: Induction of apoptosis in human HuTu80 cells assessed as early apoptotic cells at 2 uM incubated for 48 hrs by annexin V FITC/propidium iodide staining based flow cytometry analysis (reference value: 1.74%); format: functional
[46] = test system: HuTu80; test: Induction of apoptosis in human HuTu80 cells assessed as viable cells at 1 uM incubated for 48 hrs by annexin V FITC/propidium iodide staining based flow cytometry analysis (reference value: 93.71%); format: functional; conditions: read-out: Activity
[47] = test system: HuTu80; test: Induction of apoptosis in human HuTu80 cells assessed as late apoptotic cells at 1 uM incubated for 48 hrs by annexin V FITC/propidium iodide staining based flow cytometry analysis (reference value: 0.00%); format: functional
[48] = test system: HuTu80; test: Induction of mitochondrial membrane potential loss in human HuTu80 cells assessed as J-aggregates red fluorescence intensity at 5 uM incubated for 24 hrs by JC10 staining based flow cytometry method (reference value: 94.4%); format: functional
[49] = test system: HuTu80; test: Induction of cell cycle arrest in human HuTu80 cells assessed as accumulation of cell at S phase at 2 uM measured after 48 hrs by propidium iodide staining based analysis (reference value: 8.1%); format: functional
[50] = test system: HuTu80; test: Induction of cell cycle arrest in human HuTu80 cells assessed as accumulation of cell at G2/M phase at 2 uM measured after 48 hrs by propidium iodide staining based analysis (reference value: 18.7%); format: functional
[51] = test system: HuTu80; test: Induction of cell cycle arrest in human HuTu80 cells assessed as accumulation of cell at S phase at 1 uM measured after 48 hrs by propidium iodide staining based analysis (reference value: 8.1%); format: functional

## C=C(C)[C@@H]1CC[C@]2(COCC(O)COC(=O)CCCC[P+](c3ccccc3)(c3ccccc3)c3ccccc3)CC[C@]3(C)[C@H](CC[C@@H]4[C@@]5(C)CC[C@H](O)C(C)(C)[C@@H]5CC[C@]43C)[C@@H]12 (stereo partly specified)
[1]
  selectivity ratio: 1.5
[2]
  IC50: 4.1 µM
[3]
  IC50: 1.5 µM
[4]
  Ratio IC50: 15.7
[5]
  IC50: 3.1 µM
[6]
  IC50 at 48 h: 4.7 µM
[7]
  selectivity ratio: 1.1
[8]
  IC50: 11.5 µM
[9]
  selectivity ratio: 3.1
[10]
  IC50: 0.3 µM
[11]
  IC50: 7.9 µM

## CC(C)C1=CC2=CC[C@@H]3[C@](C)(CCC[C@@]3(C)C(=O)OCC(O)COC(=O)CCCC[P+](c3ccccc3)(c3ccccc3)c3ccccc3)[C@H]2CC1 (stereo partly specified)
[12]
  Ratio IC50: 8.6
[13]
  IC50: 14.4 µM
[14]
  MBC: 500 µM
[2]
  IC50: 9.8 µM
[3]
  IC50: 12.5 µM
[4]
  Ratio IC50: 11
[15]
  MIC: 250 µM
[16]
  MBC: 250 µM
[5]
  IC50: 26.2 µM
[6]
  IC50 at 48 h: 24.2 µM
[17]
  MBC: 500 µM
[18]
  IC50: 21.6 µM
[19]
  IC50: 2.8 µM
[20]
  IC50 at 48 h: 6 µM
[21]
  MIC: 7.8 µM
[22]
  selectivity ratio: 2.2
[23]
  MIC: 3.9 µM
[24]
  MIC: 250 µM
[8]
  IC50: 27.3 µM
[25]
  MIC: 31.3 µM
[26]
  Ratio IC50: 1.8
[9]
  selectivity ratio: 1.9
[27]
  IC50: 13.1 µM
[10]
  IC50: 2.2 µM
[28]
  Ratio IC50: 1.7
[29]
  selectivity ratio: 1.1
[11]
  IC50: 11 µM
[30]
  MBC: 250 µM

## C=C(C)[C@@H]1CC[C@]2(COC(=O)CCC(=O)OC(COC(=O)CCCCCCC/C=C\CCCCCCCC)COC(=O)CCCC[P+](c3ccccc3)(c3ccccc3)c3ccccc3)CC[C@]3(C)[C@H](CC[C@@H]4[C@@]5(C)CC[C@H](O)C(C)(C)[C@@H]5CC[C@]43C)[C@@H]12.[Br-] (stereo partly specified)
[31]
  Activity: 90.3%
[32]
  MBC: 125 µM
[33]
  Activity: 9.7%
[34]
  Activity: 18.03%
[12]
  Ratio IC50: 2.3
[13]
  IC50: 57 µM
[2]
  IC50: 22 µM
[3]
  IC50: 16.4 µM
[35]
  Activity: 12%
[36]
  Activity: 87%
[4]
  Ratio IC50: 21.4
[37]
  Activity: 84%
[16]
  MBC: 125 µM
[5]
  IC50: 54.2 µM
[38]
  Activity: 2.8%
[6]
  IC50 at 48 h: 36.3 µM
[39]
  Flu intensity: 840
[40]
  viability at 2 µM: 51%
[7]
  selectivity ratio: 1.7
[41]
  Activity: 34.5%
[18]
  IC50: 60 µM
[19]
  IC50: 15.5 µM
[42]
  Flu intensity: 500
[20]
  IC50 at 48 h: 11.2 µM
[21]
  MIC: 125 µM
[43]
  Activity: 1.29%
[22]
  selectivity ratio: 1.1
[23]
  MIC: 15.6 µM
[44]
  Activity: 15.9%
[45]
  Activity: 2.5%
[46]
  viability at 1 µM: 76.1%
[47]
  Activity: 4.58%
[8]
  IC50: 51 µM
[48]
  Activity: 84.2%
[25]
  MIC: 31.3 µM
[49]
  Activity: 1.9%
[9]
  selectivity ratio: 2.2
[27]
  IC50: 35.7 µM
[10]
  IC50: 1.7 µM
[50]
  Activity: 1.8%
[51]
  Activity: 2.8%
[11]
  IC50: 32.3 µM
